Experimental data from patent US9186360B2, “Treatment of respiratory disorders using TRPA1 antagonists” (GLENMARK PHARMACEUTICALS S.A., priority 2011, dated 2015).
Each block holds one compound with its values, some of them ahead of it.

Key:
[1] = test system: ovalbumin sensitized Dunkin Hartley guinea pigs; experiment: Ovalbumin induced asthma model in guinea pigs, intra-tracheal dosing; type: in vivo, guinea pig; conditions: for Percent inhibition of eosinophils: BAL 48 hours after challenge; for Airway conductance sGAW (AUC): 4 hours before ovalbumin challenge
Protocol: Healthy male Dunkin Hartley guinea pigs weighing between 300-400 gm were sensitized on day 0 with (5 mg) and on day 2 with (10 mg) of ovalbumin (Ova) and 10 mg of aluminum hydroxide gel given intra peritoneal (i.p.). Guinea pigs were challenged with 0.3% aerosolized ovalbumin on Day 21 following sensitization.
Actively sensitized male guinea pigs with free access to water, were fasted overnight, and used for the studies. Animals were assigned to one of the following groups during each experiment as per Table 2 below.
Guinea pigs were dosed intra-tracheally with Compound 52 or vehicle 4 hours before exposure to aerosolized ovalbumin challenge. The control group of animals received vehicle (Lactose powder—2 mg/animal, i.t.) only.
Broncho Alveolar Lavage (BAL) was performed at 48 hours after challenge with ovalbumin. Animals were anesthetized with an overdose of urethane, trachea was exposed and BAL was performed 5 times using 5 mL PBS. All aspirates of BAL were pooled and total number of cells determined using a hemocytometer. The BAL was centrifuged, and the cell pellet re-suspended in 50 μL guinea pig serum and used for preparation of smears. Slides were stained with Giemsa stain and a differential cell count of 500 cells based on standard morphology was performed manually.
The total number of eosinophils in each BAL sample was calculated using the formula:
[formula] Percent inhibition of eosinophils was calculated using the following formula: […]
The results for the bronchoconstriction part were calculated as percent (%) change in sGaw from saline base-line readings with saline taken just 1 minute before the antigen challenge and reported as peak change (mean±S.E.M.) for every 5 minutes for a total duration of 30 min after OA challenge. Area under the curve (AUC) was determined for each animal using GraphPad Prism. The percent (%) increase in AUC in the treated group relative to the vehicle group was calculated. Data was statistically analyzed using ANOVA and Dunnett's post hoc test.

[2] = test system: ovalbumin sensitized Brown Norway rats; experiment: Ovalbumin challenge in Brown Norway rats, intra-tracheal dosing (Example 3); type: in vivo, rat; conditions: i.t.
Protocol: Male Brown Norway rats were sensitized subcutaneously on day 0, 14 and 21 with 0.5 ml solution containing 20 μg/ml ovalbumin and 40 mg/ml aluminum hydroxide. Simultaneously animals were injected intraperitoneally (i.p.) with 0.25 ml of B. pertussis vaccine/rat containing 4×10^8 heat killed bacilli/ml. Rats were challenged with 1% aerosolized ovalbumin on Day 28 following sensitization.
Test compounds were triturated and volume was made up with Normal Saline (0.9% NaCl). Animals were administered Compound 52 intra-tracheally 1 hour before ovalbumin challenge. Animals were sacrificed 48 hours after ovalbumin challenge and BAL was performed as mentioned in Example 2. The pooled BAL was used to determined total number of cells using a hemocytometer. Further, cell differential study was performed according to Example 2.
The total number of eosinophils in each BAL sample was calculated using the formula: […]
Percent inhibition of eosinophils was calculated using the following formula: […]
(§1) The data was statistically evaluated by ANOVA followed by Dunnett's multiple comparisons test.

[3] = Pharmacokinetics in guinea pig upon intra-tracheal administration; type: in vivo; conditions: 500 mcg i.t.; for AUC0-24 / Cmax: mean ± SD (N = 3); for Tmax: guinea pig, other: intra-tracheal, 500 ug
Protocol: Guinea pigs were dosed intra-tracheally with Compound 52 with lactose as a vehicle. At various time points, animals were sacrificed with an overdose of urethane, trachea was exposed and BAL was performed 5 times using 5 mL PBS. Lung tissue was collected and kept at −70° C. until analysis. The BAL was centrifuged, and the cell pellet was collected and kept at −70° C. until analysis.

[4] = target: human TRPV1 (Homo sapiens (Human), UniProt Q8NER1); experiment: Radiometric calcium selectivity assay, CHO cells expressing human TRPV1 (capsaicin); type: cell-based; conditions: read-out: IC50 values hTRPV1
[5] = target: human TRPV3 (Homo sapiens (Human), UniProt Q8NET8); experiment: Radiometric calcium selectivity assay, CHO cells expressing human TRPV3 (2-aminoethoxydiphenyl borate); type: cell-based; conditions: read-out: IC50 values hTRPV3
[6] = target: human TRPV4 (Homo sapiens (Human), UniProt Q9HBA0); experiment: Radiometric calcium selectivity assay, CHO cells expressing human TRPV4 (4α-phorbol 12,13-didecanoate); type: cell-based; conditions: read-out: IC50 values hTRPV4
[7] = target: human TRPM8 (Homo sapiens (Human), UniProt Q7Z2W7); experiment: Radiometric calcium selectivity assay, CHO cells expressing human TRPM8 (icilin); type: cell-based; conditions: read-out: IC50 values hTRPM8
[8] = test system: ovalbumin sensitized Brown Norway rats; experiment: Ovalbumin asthma model in Brown Norway rats (Example 5); type: in vivo, rat; conditions: i.t. 1 hour before ovalbumin challenge, BAL 48 hours; dose dependent
Protocol: Male BN rats were sensitized subcutaneously (s.c.) on day 0, 14 and 21 with 0.5 ml solution containing 20 μg/ml ovalbumin (Ova) and 40 mg/ml aluminum hydroxide. Simultaneously the animals were injected intraperitoneally (i.p.) with 0.25 ml of B. pertussis vaccine/rat containing 4×10^8 heat killed bacilli/ml. The rats were challenged with 1% aerosolized ovalbumin on Day 28 following sensitization.
Test compounds were triturated and volume was made up with Normal Saline (0.9% NaCl). Animals were administered TRPA1 antagonists (Compound 52, Compound 73, Compound 84, Compound 90 and Compound 92) intra-tracheally (i.t.) 1 hour and fluticasone 24 hours and 1 hour before ovalbumin challenge. Animals were sacrificed 48 hours after ovalbumin challenge.
BAL was performed at approximately 48 hours after ovalbumin challenge and the pooled BAL was used to determined total number of cells and for cell differential study (according to Example 2).
The total number of eosinophils in each BAL sample and % inhibition of eosinophils were calculated according to Example 3
as §1

[9] = test system: LPS exposed Brown Norway rats; experiment: Aerosolized LPS induced airway inflammation in Brown Norway rats; type: in vivo, rat; conditions: i.t. 4 hours before LPS; Compound 52 1000 μg/animal, Compound 90 2000 μg/animal; BAL 12 hours
Protocol: Male Brown Norway rats were exposed to aerosolized Lipopolysaccharide (LPS) (100 μg/ml) for 40 minutes at 1.8 bar pressure using a nebulizer (Hudson Respiratory Care Incorporated), phosphate buffered saline (PBS) control animals were exposed to hyrdroxylamine hydrochloride in PBS.
Test compounds were triturated and volume was made up with either distilled water or normal saline (0.9% NaCl). Animals were administered Compound 52 and Compound 90 intra-treacheally 4 hours before LPS aerosolized exposure. Animals were sacrificed 12 hours after aerosolized exposure. The control group of animals received only 2 mg Lactose/100 μl distilled water/animal intratracheally or normal saline 100 μl/animal intratracheally.
Broncho alveolar lavage (BAL) was performed at approximately 12 hours after aerosolized exposure. Animals were euthanized with an overdose of urethane, trachea was exposed and BAL was performed 5 times using 2 ml PBS. All aspirates of BAL were pooled and total number of cells determined using a hemocytometer. BALFwas centrifuged. […]
The total number of neutrophils in each BAL sample was calculated using the formula:
[formula] Percent inhibition of neutrophils was calculated using the following formula:
[formula] Data was statistically evaluated by ANOVA followed by Dunnett's multiple comparisons test. […]

human TRPV3, sequence (Q8NET8 whole entry): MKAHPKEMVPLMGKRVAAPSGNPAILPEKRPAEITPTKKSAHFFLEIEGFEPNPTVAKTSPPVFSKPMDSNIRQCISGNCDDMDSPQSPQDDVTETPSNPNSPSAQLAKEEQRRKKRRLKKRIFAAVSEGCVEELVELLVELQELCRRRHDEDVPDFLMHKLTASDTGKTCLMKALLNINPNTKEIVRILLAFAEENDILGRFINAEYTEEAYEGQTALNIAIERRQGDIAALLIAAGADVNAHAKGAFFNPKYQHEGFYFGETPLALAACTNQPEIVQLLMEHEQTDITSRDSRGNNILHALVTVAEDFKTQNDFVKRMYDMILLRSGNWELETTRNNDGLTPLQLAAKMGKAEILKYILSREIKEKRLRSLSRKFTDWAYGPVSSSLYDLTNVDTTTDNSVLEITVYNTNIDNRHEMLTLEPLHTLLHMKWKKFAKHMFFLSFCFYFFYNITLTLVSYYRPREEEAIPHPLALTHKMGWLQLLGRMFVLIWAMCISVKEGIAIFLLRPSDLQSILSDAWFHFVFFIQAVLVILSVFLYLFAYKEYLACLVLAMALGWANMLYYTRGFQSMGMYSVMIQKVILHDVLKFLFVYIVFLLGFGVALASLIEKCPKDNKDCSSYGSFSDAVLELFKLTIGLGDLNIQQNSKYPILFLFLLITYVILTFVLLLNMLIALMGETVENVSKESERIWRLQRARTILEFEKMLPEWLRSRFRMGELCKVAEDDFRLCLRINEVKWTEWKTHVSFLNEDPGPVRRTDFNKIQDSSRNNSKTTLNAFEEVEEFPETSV
human TRPM8, sequence (Q7Z2W7 whole entry): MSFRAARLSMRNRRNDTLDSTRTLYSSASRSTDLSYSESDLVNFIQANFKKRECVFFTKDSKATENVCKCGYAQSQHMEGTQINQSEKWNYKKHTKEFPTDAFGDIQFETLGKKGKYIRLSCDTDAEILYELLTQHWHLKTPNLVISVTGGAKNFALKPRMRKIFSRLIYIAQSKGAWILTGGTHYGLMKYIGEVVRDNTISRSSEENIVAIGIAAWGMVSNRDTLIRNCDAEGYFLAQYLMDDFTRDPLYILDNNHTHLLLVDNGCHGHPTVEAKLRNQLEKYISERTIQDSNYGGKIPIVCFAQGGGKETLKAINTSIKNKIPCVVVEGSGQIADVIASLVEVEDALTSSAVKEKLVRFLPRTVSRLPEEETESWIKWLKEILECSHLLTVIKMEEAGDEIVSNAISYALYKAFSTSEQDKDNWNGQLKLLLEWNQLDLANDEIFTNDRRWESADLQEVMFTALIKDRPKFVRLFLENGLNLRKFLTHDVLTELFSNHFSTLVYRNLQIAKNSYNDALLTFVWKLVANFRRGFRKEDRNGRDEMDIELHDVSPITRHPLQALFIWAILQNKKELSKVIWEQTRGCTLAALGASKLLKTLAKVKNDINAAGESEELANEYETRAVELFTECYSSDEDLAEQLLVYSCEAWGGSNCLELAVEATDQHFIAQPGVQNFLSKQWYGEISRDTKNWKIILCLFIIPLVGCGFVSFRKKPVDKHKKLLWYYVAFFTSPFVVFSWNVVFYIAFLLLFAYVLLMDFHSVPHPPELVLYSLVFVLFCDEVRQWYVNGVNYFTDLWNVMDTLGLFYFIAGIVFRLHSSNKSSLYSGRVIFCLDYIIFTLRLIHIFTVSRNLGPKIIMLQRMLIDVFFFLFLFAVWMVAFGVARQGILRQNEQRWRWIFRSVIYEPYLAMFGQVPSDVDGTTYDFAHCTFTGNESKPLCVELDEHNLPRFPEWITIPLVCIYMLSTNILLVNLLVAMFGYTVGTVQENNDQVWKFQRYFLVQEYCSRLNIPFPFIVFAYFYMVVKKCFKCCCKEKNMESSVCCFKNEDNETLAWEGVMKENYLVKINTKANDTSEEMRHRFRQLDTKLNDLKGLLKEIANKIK
human TRPV4, sequence (Q9HBA0 whole entry): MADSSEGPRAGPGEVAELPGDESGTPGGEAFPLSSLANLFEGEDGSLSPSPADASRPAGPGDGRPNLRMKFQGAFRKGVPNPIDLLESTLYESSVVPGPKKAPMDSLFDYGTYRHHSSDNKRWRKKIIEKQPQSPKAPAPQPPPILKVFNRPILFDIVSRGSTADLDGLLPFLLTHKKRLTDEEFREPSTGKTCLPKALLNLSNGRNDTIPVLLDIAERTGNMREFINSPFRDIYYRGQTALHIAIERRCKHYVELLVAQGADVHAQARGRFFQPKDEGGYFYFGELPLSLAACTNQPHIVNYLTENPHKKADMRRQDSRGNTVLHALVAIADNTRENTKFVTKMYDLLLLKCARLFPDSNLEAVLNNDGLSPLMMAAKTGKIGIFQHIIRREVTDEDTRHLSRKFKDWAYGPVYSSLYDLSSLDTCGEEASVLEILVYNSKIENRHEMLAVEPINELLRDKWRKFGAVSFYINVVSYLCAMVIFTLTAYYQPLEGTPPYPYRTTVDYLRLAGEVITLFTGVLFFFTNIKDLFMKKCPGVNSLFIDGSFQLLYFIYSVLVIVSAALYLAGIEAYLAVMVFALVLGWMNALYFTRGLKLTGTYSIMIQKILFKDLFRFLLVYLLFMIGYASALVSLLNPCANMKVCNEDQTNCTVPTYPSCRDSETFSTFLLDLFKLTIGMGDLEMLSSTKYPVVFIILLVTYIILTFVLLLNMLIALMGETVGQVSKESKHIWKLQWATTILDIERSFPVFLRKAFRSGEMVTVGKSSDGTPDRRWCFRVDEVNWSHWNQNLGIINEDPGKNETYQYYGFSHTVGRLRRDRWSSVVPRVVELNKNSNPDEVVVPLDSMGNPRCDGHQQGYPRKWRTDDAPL
human TRPV1, sequence (Q8NER1 whole entry): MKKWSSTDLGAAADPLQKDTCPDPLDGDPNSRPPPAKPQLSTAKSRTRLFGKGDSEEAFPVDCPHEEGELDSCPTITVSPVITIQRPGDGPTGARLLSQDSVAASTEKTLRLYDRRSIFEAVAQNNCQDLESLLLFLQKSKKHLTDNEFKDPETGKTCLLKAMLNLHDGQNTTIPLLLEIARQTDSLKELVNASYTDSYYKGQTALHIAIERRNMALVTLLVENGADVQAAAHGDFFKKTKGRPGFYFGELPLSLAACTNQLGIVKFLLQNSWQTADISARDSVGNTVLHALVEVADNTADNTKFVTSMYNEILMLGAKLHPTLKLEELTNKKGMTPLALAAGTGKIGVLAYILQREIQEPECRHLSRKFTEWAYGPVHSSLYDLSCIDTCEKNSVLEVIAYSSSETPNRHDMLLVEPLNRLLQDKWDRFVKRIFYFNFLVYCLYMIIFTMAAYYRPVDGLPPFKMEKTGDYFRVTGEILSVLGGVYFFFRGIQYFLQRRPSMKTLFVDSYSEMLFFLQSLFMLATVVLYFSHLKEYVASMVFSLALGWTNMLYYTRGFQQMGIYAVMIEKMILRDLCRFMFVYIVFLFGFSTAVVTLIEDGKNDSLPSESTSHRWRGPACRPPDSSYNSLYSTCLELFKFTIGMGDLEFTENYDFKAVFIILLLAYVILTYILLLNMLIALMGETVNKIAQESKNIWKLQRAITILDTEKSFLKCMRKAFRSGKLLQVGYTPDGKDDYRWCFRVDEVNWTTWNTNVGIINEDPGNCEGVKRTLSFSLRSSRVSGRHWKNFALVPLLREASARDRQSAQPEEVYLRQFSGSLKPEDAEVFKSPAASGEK

SMILES: Cn1c(=O)c2c(CC(=O)Nc3nc(-c4ccc(F)c(C(F)(F)F)c4F)cs3)csc2n(C)c1=O [Compound 52]
Percent inhibition of eosinophils ([1]; dose 125 μg/animal i.t.): 61%
Percent inhibition of eosinophils ([1]; dose 250 μg/animal i.t.): 87%
Percent inhibition of eosinophils ([1]; dose 500 μg/animal i.t.): 68%
Airway conductance sGAW (AUC) ([1]; dose 25 (table μg/kg; text μg/animal) i.t.): 1399
Percent improvement in airway conductance ([1]; dose 25 i.t.): 0%
Percent inhibition of eosinophils ([1]; dose 25 i.t.): 0%
Percent improvement in airway conductance ([1]; dose 50 i.t.): 7%
Airway conductance sGAW (AUC) ([1]; dose 50 i.t.): 1592
Percent inhibition of eosinophils ([1]; dose 50 i.t.): 0%
Percent improvement in airway conductance ([1]; dose 125 i.t.): 39%
Airway conductance sGAW (AUC) ([1]; dose 125 i.t.): 1943
Percent improvement in airway conductance ([1]; dose 250 i.t.): 45%
Airway conductance sGAW (AUC) ([1]; dose 250 i.t.): 2004
Percent improvement in airway conductance ([1]; dose 500 i.t.): 43%
Airway conductance sGAW (AUC) ([1]; dose 500 i.t.): 1987
inhibition of eosinophils ([1]; dose not stated for this figure): 75%
ED50, inhibition of pulmonary eosinophilia [2]: 213 µg
AUC0-24 ([3]; Cell Pellet (BAL)): 70390 ± 12071 ng · h/ml or g
Cmax ([3]; Cell Pellet (BAL)): 6726 ± 2049 ng/ml or g
AUC0-24 ([3]; Lung Tissue): 103786 ± 28285 ng · h/ml or g
Cmax ([3]; Lung Tissue): 4989 ± 2548 ng/ml or g
Tmax ([3]; Cell Pellet (BAL)): 0.25 h
Tmax ([3]; Lung Tissue): 8 h

IC50 [4]: > 10 µM
IC50 [5]: > 10 µM
IC50 [6]: > 10 µM
IC50 [7]: > 10 µM
SMILES: COCCCOc1cccc(C2NC(=S)NC3=C2C(=O)c2ccccc23)c1 (stereo not drawn) [Compound 90]
pulmonary eosinophilia [8]: significant inhibition
neutrophils in BALF [9]: significant inhibition
total leukocytes in BALF [9]: significant inhibition
